Reference: the supplement of paper PMC10307832

How the values were obtained:
Test in all cases: relative viability (nuclei count vs DMSO), 5 days (fraction); higher = more cells survive
Silmitasertib + Olaparib = compound: O=C(O)c1ccc2c(c1)nc(Nc1cccc(Cl)c1)c1ccncc12 [Silmitasertib] + O=C(c1cc(Cc2n[nH]c(=O)c3ccccc23)ccc1F)N1CCN(C(=O)C2CC2)CC1 [Olaparib] (partner 8 µM)
How it was run: (§1)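 Lung cancer cell lines were pin-tool dosed in 1536-well plates on the day after seeding, with either a lone drug or a fixed anchor-drug dose plus five library-drug doses (not always all listed) in √10 steps. Nuclei were counted on 4× images after 5 days. Relative viability is the ratio of treated-well to vehicle-well nuclei counts, with each value a median of duplicate plates.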

[1] = compound: O=C(O)c1ccc2c(c1)nc(Nc1cccc(Cl)c1)c1ccncc12 [Silmitasertib] + Cc1cc(Nc2cc(N3CCN(C)CC3)nc(Sc3ccc(NC(=O)C4CC4)cc3)n2)n[nH]1 [Tozasertib] (partner 0.1 µM)
How it was run: as §1

[2] = compound: O=C(O)c1ccc2c(c1)nc(Nc1cccc(Cl)c1)c1ccncc12 [Silmitasertib] + O=C(CCCCCCC(=O)Nc1ccccc1)NO [Vorinostat] (partner 1 µM)
How it was run: as §1

[3] = compound: O=C(O)c1ccc2c(c1)nc(Nc1cccc(Cl)c1)c1ccncc12 [Silmitasertib] + C[C@]1(O)C[C@@H](c2nc(-c3ccc4ccc(-c5ccccc5)nc4c3)c3c(N)nccn32)C1 [Linsitinib] (partner 1 µM)
How it was run: as §1

[4] = compound: O=C(O)c1ccc2c(c1)nc(Nc1cccc(Cl)c1)c1ccncc12 [Silmitasertib] + Cc1nc(Nc2ncc(C(=O)Nc3c(C)cccc3Cl)s2)cc(N2CCN(CCO)CC2)n1 [Dasatinib] (partner 0.075 µM)
How it was run: as §1

Cell Line | relative viability (Silmitasertib + Olaparib; first compound 0.04 µM) | relative viability (Silmitasertib + Olaparib; first compound 0.4 µM) | relative viability (Silmitasertib + Olaparib; first compound 1.265 µM) | relative viability (Silmitasertib + Olaparib; first compound 4 µM) | relative viability ([1]; first compound 0.04 µM) | relative viability ([1]; first compound 0.4 µM) | relative viability ([1]; first compound 1.265 µM) | relative viability ([1]; first compound 4 µM) | relative viability ([2]; first compound 0.04 µM) | relative viability ([2]; first compound 0.4 µM) | relative viability ([2]; first compound 1.265 µM) | relative viability ([2]; first compound 4 µM) | relative viability ([3]; first compound 0.04 µM) | relative viability ([3]; first compound 0.4 µM) | relative viability ([3]; first compound 1.265 µM) | relative viability ([3]; first compound 4 µM) | relative viability ([4]; first compound 0.04 µM) | relative viability ([4]; first compound 0.4 µM) | relative viability ([4]; first compound 1.265 µM) | relative viability ([4]; first compound 4 µM)
LU99A | 0.277 | 0.287 | 0.216 | 0.204 | 0.316 | 0.29 | 0.263 | 0.256 | 0.519 | 0.546 | 0.482 | 0.374 | 0.574 | 0.632 | 0.396 | 0.361 | 0.478 | 0.46 | 0.369 | 0.434
LXF-289 | 0.995 |  | 0.935 | 1.07 | 0.212 |  | 0.186 | 0.182 | 0.751 |  | 0.747 | 0.862 | 0.91 |  | 1.08 | 1.06 | 0.181 |  | 0.346 | 0.363
NCI-H23 | 0.351 | 0.217 | 0.272 | 0.251 | 0.427 |  | 0.223 | 0.188 | 0.6 | 0.281 | 0.545 | 0.165 | 0.662 |  | 0.448 | 0.582 | 0.793 |  | 0.652 | 0.581
NCI-H322M | 0.7 | 0.608 | 0.456 | 0.39 | 0.51 | 0.505 | 0.377 | 0.342 | 0.994 | 0.936 | 0.968 | 0.653 | 0.868 | 0.809 | 0.62 | 0.453 | 0.243 | 0.294 | 0.282 | 0.294
NCI-H358 | 0.696 | 0.396 | 0.483 | 0.36 | 0.121 | 0.0941 | 0.115 | 0.083 | 0.774 | 0.652 | 0.677 | 0.692 | 0.902 | 0.799 | 0.585 | 0.607 | 0.176 | 0.312 | 0.14 | 0.155
NCI-H441 | 0.604 |  | 0.647 | 0.341 | 0.61 |  | 0.512 | 0.472 | 0.935 |  | 0.822 | 0.843 | 0.455 |  | 0.389 | 0.35 | 0.651 |  | 0.532 | 0.333
NCI-H460 | 0.387 | 0.269 | 0.553 | 0.575 | 0.556 | 0.119 | 0.405 | 0.523 | 0.722 | 0.747 | 0.668 | 0.842 | 0.779 | 0.84 | 0.782 | 0.899 | 0.56 | 0.445 | 0.44 | 0.448
NCI-H520 | 0.365 | 0.318 | 0.295 | 0.262 | 0.443 | 0.429 | 0.42 | 0.394 | 0.773 | 0.907 | 0.912 | 0.802 | 1.05 | 1.17 | 1.04 | 0.785 | 0.274 | 0.215 | 0.196 | 0.193
NCI-H596 | 0.659 | 0.597 | 0.685 | 0.654 | 0.967 | 0.735 | 0.624 | 0.799 | 0.768 | 0.616 | 0.611 | 0.375 | 1.09 | 1.07 | 0.839 | 0.933 | 0.617 | 0.563 | 0.463 | 0.497
NCI-H647 | 0.625 | 0.431 | 0.57 | 0.325 | 0.324 | 0.211 | 0.196 | 0.175 | 0.868 | 0.666 | 0.672 | 0.704 | 1.37 | 1.24 | 1.05 | 0.663 | 0.185 | 0.266 | 0.171 | 0.0776
NCI-H650 | 0.4 | 0.232 | 0.317 | 0.294 | 0.874 | 0.492 | 0.496 | 0.355 | 0.626 | 0.281 | 0.475 | 0.244 | 0.96 | 0.563 | 0.757 | 0.407 | 0.479 | 0.373 | 0.375 | 0.285
NCI-H661 | 0.735 | 0.679 | 0.629 | 0.493 | 0.346 | 0.368 | 0.334 | 0.364 | 0.812 | 0.847 | 0.737 | 0.631 | 0.646 |  | 0.38 | 0.577 | 1.13 | 0.723 | 0.607 | 0.569
NCI-H727 | 0.709 | 0.59 | 0.584 | 0.681 | 0.584 | 0.62 | 0.681 | 0.609 | 1.36 | 0.822 | 0.83 | 1.16 | 0.327 | 0.287 | 0.303 | 0.166 | 0.326 | 0.358 | 0.272 | 0.379
NCI-H838 | 0.849 | 0.521 | 0.635 | 0.491 | 0.289 |  | 0.257 | 0.222 | 0.787 | 0.837 | 0.807 | 0.848 | 1.09 |  | 0.899 | 0.608 | 0.323 | 0.325 | 0.372 | 0.254
NCI-H1355 | 0.727 |  | 0.698 | 0.615 | 0.545 |  | 0.528 | 0.46 | 0.664 |  | 0.622 | 0.499 | 0.857 |  | 0.768 | 0.796 | 0.766 |  | 0.578 | 0.485
NCI-H1395 | 0.463 | 0.461 | 0.459 | 0.469 | 0.742 | 0.559 | 0.68 | 0.623 | 0.93 | 0.616 | 0.662 | 0.538 | 1.14 | 0.919 | 1 | 1.01 | 0.471 | 0.387 | 0.431 | 0.414
NCI-H1437 | 0.648 | 0.645 | 0.521 | 0.483 | 0.397 | 0.406 | 0.3 | 0.241 | 0.844 | 0.787 | 0.701 | 0.43 | 1.03 |  | 0.691 | 0.36 | 0.483 | 0.376 | 0.272 | 0.322
